Tests used:
[1] = chronic treatment, medial cholinergic pathway lesions; cited from earlier work
GR/NER chimeric receptor = test: Activation of GR/NER in CV1 cells (luciferase); details: for Fold of stimulation GR/NER, Control: without dopamine
Description: The ligand dependent transcription assays were performed as described in Example 4, using CV1 cells in place of COS cells. The transfected CV1 cells were treated with dopamine, TOFA, or with a combination of TOFA and dopamine at the indicated concentrations and tested for luciferase activity.
CV1 cells were co-transfected with the MMTV-Luciferase reporter gene (pJA358) and the GR/NER chimeric receptor as described in Example 4. The cells were treated with increasing amount of the dopamine D1 receptor antagonist SCH 23390 with or without 50 μM […] dopamine.

[2] = tested on: Dopamine D1 receptor antagonist (SCH 23390) induced catalepsy; test: SCH 23390 induced catalepsy (Bar method); format: in vivo, rat; details: carrier pretreatment, 24 h later 0.5 mg/kg SCH23390
Description: Rats were pretreated with 0.4 mg/kg TOFA or with carrier (S.C.). Twenty-four hours later, the rats were challenged with 0.5 mg/kg SCH23390, a Dopamine D1 antagonist, and the duration of catalepsy was monitored.
Catalepsy was determined by a modification of the Bar method (Undie and Friedman, 1988). A steel bar, 1.1 cm in diameter and 50 cm long, was suspended at a height of 10 cm above the working surface. Three sides of the bench around the bar were walled off with brown cardboard, and the linings on the bench surface were selected to be of the same color with the cardboard walls. The animal's hind limbs were freely placed on the bench, the fail laid out to the back, and the forelimbs placed over the bar. The length of time a rat stayed up on the bar was noted up to a preset cut-off point of 120 s. The time was counted off upon observing any of the following actions: (1) the animal came off, placing its two forepaws on the bench, (2) the animal climbed onto or over the bar with both hind limbs, (3) the animal initiated locomotion along or around the bar. Subsequently, time readings were translated into scores by awarding a score of 1 for each successfully completed 5 s on the bar. For each observation time, catalepsy scores were averaged for all the animals in a group to give the Mean Score of the group at that observation time. Further, the scores for each animal at all the observation times were added to give the total score for that animal. The mean of this last group of numbers was called the Mean Total Score of the group.
Catalepsy scores were analyzed by computer in accordance with the statistical procedures outlined by Winer, B. J.: Statistical principles in experimental design. McGraw-Hill, New York, pp. 10-428, 1971. Generally, for a given set of comparisons, observations were subjected to an appropriate analysis of variance followed by two-tailed Dunnett or Student's t-tests to detect differences between treatment groups.

[3] = Toxicity to transfected COS cells in the transcription assay; format: cell-based; details: monkey, GR/PPAR transcription assay, read-out: Concentrations toxic to the cells
Description: The ligand transcription assay mediated by GR/PPAR in COS cells was performed as described in Example 4. The cells were treated with TOFA and Cerulenin at 0.1, 1, 10 and 100 μM. Concentrations of cerulenin above 10 μM were toxic to the cells.

[4] = target: T1, GR/PPAR chimeric receptor (Mus musculus, UniProt P23204); test: Ligand dependent transcription assay, GR/PPAR chimeric receptor with MMTV-luciferase reporter; format: cell-based
T1 construct: COS cells, MMTV-luciferase
T1 sequence (P23204 1-468): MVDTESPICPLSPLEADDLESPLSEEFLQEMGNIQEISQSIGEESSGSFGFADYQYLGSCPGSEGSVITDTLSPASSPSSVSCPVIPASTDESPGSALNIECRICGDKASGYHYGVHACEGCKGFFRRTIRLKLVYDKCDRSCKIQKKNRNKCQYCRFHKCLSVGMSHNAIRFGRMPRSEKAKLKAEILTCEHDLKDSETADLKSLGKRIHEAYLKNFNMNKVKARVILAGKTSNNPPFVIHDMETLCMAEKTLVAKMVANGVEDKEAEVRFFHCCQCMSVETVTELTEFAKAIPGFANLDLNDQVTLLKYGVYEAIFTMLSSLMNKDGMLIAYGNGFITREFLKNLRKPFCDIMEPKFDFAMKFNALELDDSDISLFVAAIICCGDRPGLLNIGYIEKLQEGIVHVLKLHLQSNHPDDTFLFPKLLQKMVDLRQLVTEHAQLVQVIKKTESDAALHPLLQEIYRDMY
T1 sequence (P06537 1-792 partner): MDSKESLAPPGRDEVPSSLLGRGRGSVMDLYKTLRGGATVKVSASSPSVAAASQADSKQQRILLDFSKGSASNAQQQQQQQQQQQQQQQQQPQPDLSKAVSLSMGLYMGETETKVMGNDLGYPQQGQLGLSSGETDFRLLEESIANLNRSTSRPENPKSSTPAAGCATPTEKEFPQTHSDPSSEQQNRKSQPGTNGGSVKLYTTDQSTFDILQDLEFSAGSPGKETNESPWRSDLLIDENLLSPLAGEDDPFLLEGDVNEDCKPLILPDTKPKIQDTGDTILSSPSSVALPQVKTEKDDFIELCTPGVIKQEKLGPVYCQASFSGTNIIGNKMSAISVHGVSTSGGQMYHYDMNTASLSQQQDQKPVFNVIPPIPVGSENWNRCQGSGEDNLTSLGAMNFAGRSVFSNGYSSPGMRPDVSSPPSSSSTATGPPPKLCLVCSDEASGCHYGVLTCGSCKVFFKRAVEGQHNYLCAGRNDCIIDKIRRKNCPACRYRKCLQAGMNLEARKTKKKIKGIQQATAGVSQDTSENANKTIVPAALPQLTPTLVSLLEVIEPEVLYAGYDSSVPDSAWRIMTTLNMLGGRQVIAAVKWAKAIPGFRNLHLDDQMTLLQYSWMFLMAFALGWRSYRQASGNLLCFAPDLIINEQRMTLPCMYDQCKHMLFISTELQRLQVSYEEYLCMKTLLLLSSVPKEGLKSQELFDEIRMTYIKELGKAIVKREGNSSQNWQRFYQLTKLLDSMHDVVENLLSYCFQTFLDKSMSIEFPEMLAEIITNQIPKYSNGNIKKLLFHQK
Description: Similar hybrid receptors GR/NER, GR/NUC and GR/PPAR, in identical expression plasmid backgrounds were prepared essentially as described for the construction of the GR/mPPAR and GR/NUC chimeric receptors in Schmidt et al., "Identification of a new member of the steroid hormone receptor superfamily that is activated by a peroxisome proliferator and fatty acids," Mol. Endocrinol., 6(10):1634-41, 1992, and in Boie et al., "Enantioselective activation of the peroxisome proliferator-activated receptor", J. Biol. Chem. 268(8):5530-4, 1993.
Briefly, the amino terminal portion of the mouse glucocorticoid receptor (mGR), that includes the DNA binding domain was fused to the putative ligand binding domains of the nuclear receptor NER, hNUC-I (Schmidt et al., 1992), mPPAR (Issenmann and Green, 1990) to form the respective chimeric receptors GR/NER, GR/NUC and GR/PPAR. The GR/NER chimeric receptor was constructed as described for the GR/NUC and GR/PPAR hybrid receptors (Schmidt et al., 1992; Boie et al). The cDNA sequences coding for amino acids Arg^155 and Glu^156 of the NER receptor were converted to the Xho I restriction site, that was later used for the ligation to the GR cDNA sequences that coded for the DNA binding domain. Thus, converting amino acid residues Arg^155 and Glu^156 of NER receptor to amino acid residues Ser^155 and His^156.
The ligand transcription assay mediated by GR/PPAR in COS cells was performed as described in Example 4. The cells were treated with TOFA and Cerulenin at 0.1, 1, 10 and 100 μM.

| SMILES | Radial-arm maze performance [1] | Effect on transcription mediated by GR/NER in CV1 cells (GR/NER chimeric receptor) | Effect on inhibition of luciferase expression caused by dopamine (GR/NER chimeric receptor; 50 μM dopamine) | Fold of stimulation GR/NER, Dopamine (50 μM) (GR/NER chimeric receptor; SCH-23390 0.1 μM with 50 μM dopamine) [fold] | Fold of stimulation GR/NER, Control (GR/NER chimeric receptor; SCH-23390 0.1 μM) [fold] | Fold of stimulation GR/NER, Dopamine (50 μM) (GR/NER chimeric receptor; SCH-23390 1.0 μM with 50 μM dopamine) [fold] | Fold of stimulation GR/NER, Control (GR/NER chimeric receptor; SCH-23390 1.0 μM) [fold] | Fold of stimulation GR/NER, Dopamine (50 μM) (GR/NER chimeric receptor; SCH-23390 10.0 μM with 50 μM dopamine) [fold] | Fold of stimulation GR/NER, Control (GR/NER chimeric receptor; SCH-23390 10.0 μM) [fold] | Fold of stimulation GR/NER, Dopamine (50 μM) (GR/NER chimeric receptor; SCH-23390 100 μM with 50 μM dopamine) [fold] | Fold of stimulation GR/NER, Control (GR/NER chimeric receptor; SCH-23390 100 μM) [fold] | Catalepsy Duration [2] [s] | MCC [3] [µM] | Expression mediated by GR/PPAR [4] | fold induction at 0.1 µM ([4]; 0.1 μM, COS cells, Table 2, read-out: Fold of stimulation GR/PPAR) | fold induction at 1 µM ([4]; 1.0 μM, COS cells, Table 2, read-out: Fold of stimulation GR/PPAR) | fold induction at 10 µM ([4]; 10.0 μM, COS cells, Table 2, read-out: Fold of stimulation GR/PPAR) |
| --- | --- | --- | --- | --- | --- | --- | --- | --- | --- | --- | --- | --- | --- | --- | --- | --- | --- |
| CN1CCc2cc(Cl)c(O)cc2C(c2ccccc2)C1 (single isomer, unassigned) [SCH-23390, 8-chloro-2,3,4,5-tetrahydro-3-methyl-5-phenyl-1H-3-benzazepin-7-ol hemimaleate] | reversed the lesion-induced impaired performance | stimulated the transcription | can reverse the inhibition of luciferase expression | 0.59 ± 0.06 | 1.32 ± 0.15 | 0.55 ± 0.09 | 1.22 ± 0.11 | 0.83 ± 0.12 | 1.64 ± 0.38 | 2.61 ± 0.86 | 2.38 ± 0.19 | 3.1 ± 1.3 |  |  |  |  |  |
| C/C=C/C/C=C/CCC(=O)[C@H]1O[C@H]1C(N)=O [Cerulenin, cerulenin, reference compound] |  |  |  |  |  |  |  |  |  |  |  |  | > 10 | did not stimulate transcription | 1.03 ± 0.12 | 1.13 ± 0.05 | 0.58 ± 0.11 |

— patent US5607967A, “Treatment of alzheimer's disease with 5-(tetradecyloxy)-2-furan carboxylic acid” (Merck & Co., Inc., priority 1994, dated 1997)
